Assay results reported in publication PMC3038857, “Using Nuclear Receptor Activity to Stratify Hepatocarcinogens” (PLoS ONE, 2011).
Where two headings read alike, the source gives them in different places.

Assays:
PXR = experiment: Aggregate nuclear receptor activity: PXR; parameters: species or system human; conditions: aggregate human NR activity, in words
Text: (§1) To summarize the activity of chemicals across the NR superfamily we aggregated the ToxCast assays for genes and NR groups as follows: retinoic X receptor-like (RXR; [drawing 5]; NR2B); peroxisome proliferator-activated receptor-like (PPAR; [drawing 6]; NR1C); constitutive androstane receptor ( [drawing 7]; [drawing 8]; [drawing 9] ); pregnane X receptor ( [drawing 10]; [drawing 11] ); liver X receptor-like (LXR; [drawing 12] , FXR; NR1H); and steroid receptor-like (SR; [drawing 13] , [drawing 14] , [drawing 15] ). These are shown visually in Figure 1(a). As there were differences in the number and types of assays for each group, aggregate activity was calculated as the average potency across the assays measured by the AC50 or LEC (described in Methods). This approach aggregated NR binding, activation, agonism or antagonism results into a single assessment of activity.
(§2) All data used in this analysis are publicly available from the ToxCast website (www.epa.gov/toxcast). The analysis was conducted using the R statistical language (www.r-project.org). For each chemical [drawing 77] , and assay [drawing 78] combination we derived either the AC50 (50% maximal activity concentration) or LEC (Lowest Effective Concentration) in [drawing 79] M denoted as, [drawing 80] . All chemicals are provided in Dataset S3 and all assays are given in Dataset S1. The procedure for evaluating the quality of [drawing 81] are described in the supplementary methods (Text S1) and all assay results are provided in Dataset S2. In order to facilitate comparison across the assays the [drawing 82] were transformed by the formula, [drawing 83] where [drawing 84] represents a the potency on an ascending scale, and [drawing 85] is the maximum concentration (lowest potency) across the data set.
(§3) The aggregate NR activity [drawing 86] , where [drawing 87] , was calculated using assays [drawing 88] . The aggregate scaled NR activity score for each chemical [drawing 89] was calculated as the average concentration value across the assays, scaled by the maximum value across all chemicals using Equation 1. [drawing 90] (1)

CAR = experiment: Aggregate nuclear receptor activity: CAR; conditions: aggregate human NR activity, in words
Text: as §1, §2, §3

AhR = experiment: Aggregate nuclear receptor activity: AhR; conditions: aggregate human NR activity, in words
Text: as §1, §2, §3

liver [1] = conditions: cited from earlier work
liver [2] = conditions: in vivo
Rat Liver [3] = conditions: chronic study, rat liver; ref ToxRefDB; cited from earlier work
Rat Liver [4] = conditions: chronic study, rat liver; ref ToxRefDB; cited from earlier work; remark: listed apart in the source
Rat Liver [5] = conditions: chronic study, rat liver; ref ToxRefDB; cited from earlier work; remark: listed apart in the source
[6] = biological target: T1, RXRB (retinoid X receptor, beta) (Homo sapiens, UniProt P28702); experiment: ATG_RXRb_TRANS: Factorial reporter gene assay (HepG2); format: cell-based; conditions: HepG2 reporter
T1 construct: expressed in transfected cells; host or cells: HepG2
T1 sequence (P28702 1-533): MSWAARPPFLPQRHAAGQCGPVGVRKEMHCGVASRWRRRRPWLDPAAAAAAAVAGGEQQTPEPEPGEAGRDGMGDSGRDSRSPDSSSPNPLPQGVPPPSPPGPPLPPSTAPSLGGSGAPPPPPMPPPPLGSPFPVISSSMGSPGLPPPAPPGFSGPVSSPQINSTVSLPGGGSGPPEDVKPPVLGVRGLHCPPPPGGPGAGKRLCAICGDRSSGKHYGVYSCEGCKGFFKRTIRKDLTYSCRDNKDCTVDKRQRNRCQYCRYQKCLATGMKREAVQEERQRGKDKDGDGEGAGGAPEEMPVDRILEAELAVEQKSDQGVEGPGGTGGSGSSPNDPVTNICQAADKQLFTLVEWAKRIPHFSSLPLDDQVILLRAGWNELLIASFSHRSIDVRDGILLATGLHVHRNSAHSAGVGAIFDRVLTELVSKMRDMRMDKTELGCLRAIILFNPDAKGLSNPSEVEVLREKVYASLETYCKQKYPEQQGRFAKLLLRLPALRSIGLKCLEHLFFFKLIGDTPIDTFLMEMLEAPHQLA
Protocol: (§4) A multiple reporter transcription unit (MRTU) library consisting of 48 transcription factor binding sites was transfected into the HepG2 human liver hepatoma cell line. In addition to the cis-acting reporter genes (CIS), a modification of the approach was used to generate a trans-system (TRANS) with a mammalian one-hybrid assay consisting of an additional 25 MRTU library reporting the activity of nuclear receptor super-family members. […] These assays were performed by Attagene Inc. (Morrisville NC) under contract to EPA.
(§5) In addition to the cis-acting reporter genes (CIS), a modification of the approach was used to generate a trans-system (TRANS) with a mammalian one-hybrid assay consisting of an additional 25 MRTU library reporting the activity of nuclear receptor super-family members. […] Chemicals were then tested in the CIS and TRANS assays at seven concentrations starting at the MTC and followed by three-fold serial dilutions. These assays were performed by Attagene Inc. (Morrisville NC) under contract to EPA. Detailed description of the methods, data and analysis methods for this dataset will be presented in a separate publication.

PXR (NR1I2) [7] = biological target: T2, PXR (NR1I2) (Homo sapiens, UniProt O75469); experiment: NVS_NR_hPXR: Human PXR Fluormone PXR (SXR) green (cell-free HTS); format: binding
T2 sequence (O75469 1-434): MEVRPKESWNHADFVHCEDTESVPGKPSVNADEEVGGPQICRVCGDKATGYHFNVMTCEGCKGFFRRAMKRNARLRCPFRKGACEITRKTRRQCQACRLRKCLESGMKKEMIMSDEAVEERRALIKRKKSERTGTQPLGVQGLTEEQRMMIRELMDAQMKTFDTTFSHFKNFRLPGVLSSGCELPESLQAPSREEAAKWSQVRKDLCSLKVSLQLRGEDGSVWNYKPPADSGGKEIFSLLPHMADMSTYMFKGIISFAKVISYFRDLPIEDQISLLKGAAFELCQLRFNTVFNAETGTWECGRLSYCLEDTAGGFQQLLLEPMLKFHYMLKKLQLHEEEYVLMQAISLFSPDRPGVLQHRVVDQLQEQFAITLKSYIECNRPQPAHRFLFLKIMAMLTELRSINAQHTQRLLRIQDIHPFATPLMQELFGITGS
How it was run: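 Responses were normalized to same-plate solvent controls as percent of neutral control. AC50 values came from Hill-equation fits of concentration-response curves.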

CAR (NR1I3) = biological target: T3, CAR (NR1I3) (Homo sapiens, UniProt Q14994); experiment: ATG_CAR_TRANS: Factorial reporter gene assay (HepG2); format: cell-based; parameters: endogenous in cells; host or cells: HepG2; conditions: HepG2 reporter
T3 sequence (Q14994 1-352): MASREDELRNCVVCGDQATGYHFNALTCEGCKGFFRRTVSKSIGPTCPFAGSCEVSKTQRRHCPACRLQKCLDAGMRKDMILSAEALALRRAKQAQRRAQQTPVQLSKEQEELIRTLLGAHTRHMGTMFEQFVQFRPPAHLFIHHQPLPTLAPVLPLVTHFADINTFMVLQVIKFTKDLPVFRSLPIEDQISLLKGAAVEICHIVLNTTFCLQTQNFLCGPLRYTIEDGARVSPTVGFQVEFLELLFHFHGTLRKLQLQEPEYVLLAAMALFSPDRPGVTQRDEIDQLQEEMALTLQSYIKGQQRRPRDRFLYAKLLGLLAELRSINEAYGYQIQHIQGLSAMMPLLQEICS
Protocol: as §4, §5

[8] = biological target: T4, ESR1 (estrogen receptor 1) (Homo sapiens, UniProt P03372); experiment: ATG_ERa_TRANS: Factorial reporter gene assay (HepG2); format: cell-based; conditions: HepG2 reporter
T4 construct: expressed in transfected cells; host or cells: HepG2
T4 sequence (P03372 whole entry): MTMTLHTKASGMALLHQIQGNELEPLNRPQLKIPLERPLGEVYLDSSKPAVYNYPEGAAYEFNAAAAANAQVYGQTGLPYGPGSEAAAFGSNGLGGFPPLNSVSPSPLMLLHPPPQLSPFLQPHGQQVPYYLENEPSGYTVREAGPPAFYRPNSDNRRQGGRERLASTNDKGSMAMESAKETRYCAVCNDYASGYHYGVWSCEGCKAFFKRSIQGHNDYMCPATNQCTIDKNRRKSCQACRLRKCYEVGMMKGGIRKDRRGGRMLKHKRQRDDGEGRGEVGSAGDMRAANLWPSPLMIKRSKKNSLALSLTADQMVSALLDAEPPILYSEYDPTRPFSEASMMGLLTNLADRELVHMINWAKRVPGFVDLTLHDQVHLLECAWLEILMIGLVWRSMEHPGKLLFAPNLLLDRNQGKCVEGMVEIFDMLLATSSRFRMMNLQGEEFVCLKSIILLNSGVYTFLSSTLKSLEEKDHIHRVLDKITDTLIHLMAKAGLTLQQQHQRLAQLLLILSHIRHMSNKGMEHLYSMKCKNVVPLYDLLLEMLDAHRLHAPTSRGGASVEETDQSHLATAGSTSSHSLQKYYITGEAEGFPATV
How it was run: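 HepG2 cells transfected with multiplexed reporter libraries: cis-acting binding-site reporters (CIS) and a one-hybrid nuclear-receptor trans system (TRANS). Chemicals tested at seven concentrations, starting at the maximum tolerated concentration with three-fold serial dilutions.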

[9] = biological target: T4, ESR1 (estrogen receptor 1); experiment: ATG_ERE_CIS: Factorial reporter gene assay (HepG2); format: cell-based; conditions: HepG2 reporter
Protocol: as §4, §5

PXR (NR1I2) [10] = biological target: T2, PXR (NR1I2); experiment: ATG_PXRE_CIS: Factorial reporter gene assay (HepG2); format: cell-based; parameters: endogenous in cells; host or cells: HepG2; conditions: HepG2 reporter
How it was run: (§6)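 Transfected HepG2 line; multiplexed reporter read-out. PXRE = cis library (48 TF sites); ERRg/FXR/PPARg = trans one-hybrid library (25 units). Dose series of 7, MTC downward by 3x.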

[11] = biological target: T5, PPARG (peroxisome proliferator-activated receptor gamma) (Homo sapiens, UniProt P37231); experiment: ATG_PPARg_TRANS: Factorial reporter gene assay (HepG2); format: cell-based; conditions: HepG2 reporter
T5 construct: expressed in transfected cells; host or cells: HepG2
T5 sequence (P37231 1-505): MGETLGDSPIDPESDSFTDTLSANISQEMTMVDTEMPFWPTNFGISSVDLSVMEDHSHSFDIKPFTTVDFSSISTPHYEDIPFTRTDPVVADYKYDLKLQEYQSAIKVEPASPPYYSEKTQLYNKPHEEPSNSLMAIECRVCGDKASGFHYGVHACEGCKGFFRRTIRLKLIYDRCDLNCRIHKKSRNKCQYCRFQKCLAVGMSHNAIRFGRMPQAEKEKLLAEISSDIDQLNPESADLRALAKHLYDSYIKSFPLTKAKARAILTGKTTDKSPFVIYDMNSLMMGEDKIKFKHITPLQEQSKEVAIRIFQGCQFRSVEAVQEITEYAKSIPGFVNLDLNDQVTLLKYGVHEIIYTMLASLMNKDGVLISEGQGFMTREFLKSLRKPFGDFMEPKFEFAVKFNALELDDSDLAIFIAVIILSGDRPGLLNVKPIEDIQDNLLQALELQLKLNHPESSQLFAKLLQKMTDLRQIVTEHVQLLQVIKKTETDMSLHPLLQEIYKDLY
How it was run: as §6

PPAR = experiment: Aggregate nuclear receptor activity: PPAR; conditions: aggregate human NR activity, in words
Text: as §1, §2, §3

[12] = test system: SR (steroid receptor-like); experiment: Aggregate nuclear receptor activity: SR; conditions: aggregate human NR activity, in words
Text: as §1, §2, §3

[13] = 2-year chronic feeding studies in both rat and mouse, ToxRefDB ref 5

## C#CC(C)(C)NC(=O)c1cc(Cl)cc(Cl)c1 [Propyzamide, 3,5-dichloro-N-(1,1-dimethylprop-2-yn-1-yl)benzamide]
PXR
  activity with PXR: active
CAR
  activity with CAR: most consistently active
AhR
  activity with AhR: active

## CCOP(=S)(OCC)Oc1nc(Cl)n(C(C)C)n1 [Isazofos, O-(5-chloro-1-isopropyl-1H-1,2,4-triazol-3-yl) O,O-diethyl thiophosphate]
Liver [1]; [13]
  liver injury (liver histopathology): negative for any liver injury

## Cc1nn(C)c(Oc2ccccc2)c1/C=N/OCc1ccc(C(=O)OC(C)(C)C)cc1 [(Z,E)-Fenpyroximate, tert-butyl 4-[({[(1E)-(1,3-dimethyl-5-phenoxy-1H-pyrazol-4-yl)methylene]amino}oxy)methyl]benzoate]
Liver [1]; [13]
  liver injury (liver histopathology): negative for any liver injury

## CC1(C)C(C=C(Cl)Cl)C1C(=O)OCc1cccc(Oc2ccccc2)c1 (centres unmarked) [Permethrin, [3-(phenyloxy)phenyl]methyl 3-(2,2-dichloroethenyl)-2,2-dimethylcyclopropanecarboxylate]
PXR
  activity with PXR: active
CAR
  activity with CAR: most consistently active
AhR
  activity with AhR: active

## C=C(C)CN(CC)c1c([N+](=O)[O-])cc(C(F)(F)F)cc1[N+](=O)[O-] [Ethalfluralin, N-ethyl-N-(2-methylprop-2-en-1-yl)-2,6-dinitro-4-(trifluoromethyl)aniline]
Liver [1]; [13]
  liver injury (liver histopathology): negative for any liver injury

## COP(=S)(OC)Oc1ccc(SC)c(C)c1 [Fenthion, O,O-dimethyl O-[3-methyl-4-(methylthio)phenyl] thiophosphate]
Liver [1]; [13]
  liver injury (liver histopathology): negative for any liver injury

## CCNC(=O)NC(=O)/C(C#N)=N/OC [Cymoxanil, (2E)-2-cyano-N-(ethylcarbamoyl)-2-(methoxyimino)acetamide]
Liver [2]
  lesion progression group (LPG): Cymoxanil

## CC1(C(=O)Nc2ccc(O)c(Cl)c2Cl)CCCCC1 [Fenhexamid, N-(2,3-dichloro-4-hydroxyphenyl)-1-methylcyclohexanecarboxamide]
Liver [1]; in vivo
  liver injury (liver histopathology): negative for any liver injury

## CCCN(CCOc1c(Cl)cc(Cl)cc1Cl)C(=O)n1ccnc1 [Prochloraz, N-propyl-N-[2-(2,4,6-trichlorophenoxy)ethyl]-1H-imidazole-1-carboxamide]
PXR
  activity with PXR: active
CAR
  activity with CAR: most consistently active

## CCNP(=S)(OC)O/C(C)=C/C(=O)OC(C)C (centres unmarked) [Propetamphos, isopropyl (2E)-3-{[(ethylamino)(methoxy)phosphorothioyl]oxy}but-2-enoate]
Liver [1]; [13]
  liver injury (liver histopathology): negative for any liver injury

## O=[N+]([O-])c1c(Cl)c(Cl)c(Cl)c(Cl)c1Cl [r278]
Rat Liver [3]
  CHR_Rat_Liver_3_NeoplasticLesion: 0
Rat Liver [4]
  CHR_Rat_Liver_2_PreneoplasticLesion: 6
Rat Liver [5]
  CHR_Rat_Liver_1_AnyLesion: 6
[6]
  ATG_RXRb_TRANS: 4.387
PXR (NR1I2) [7]
  NVS_NR_hPXR: 4.314
CAR (NR1I3)
  ATG_CAR_TRANS: 4.377
[8]
  ATG_ERa_TRANS: 4.284
[9]
  ATG_ERE_CIS: 4.854
PXR (NR1I2) [10]
  ATG_PXRE_CIS: 4.959
[11]
  ATG_PPARg_TRANS: 4.409

## CCOP(=S)(Oc1cnc(C(C)(C)C)nc1)OC(C)C (centres unmarked) [Tebupirimfos, O-(2-tert-butylpyrimidin-5-yl) O-ethyl O-isopropyl thiophosphate]
Liver [1]; [13]
  liver injury (liver histopathology): negative for any liver injury

## Cc1ccc(-c2c(Cl)nc(C#N)n2S(=O)(=O)N(C)C)cc1 [Cyazofamid, 4-chloro-2-cyano-N,N-dimethyl-5-(4-methylphenyl)-1H-imidazole-1-sulfonamide]
Liver [1]; in vivo
  liver injury (liver histopathology): negative for any liver injury

## C=CCOC(Cn1ccnc1)c1ccc(Cl)cc1Cl (centres unmarked) [Imazalil, 1-[2-(allyloxy)-2-(2,4-dichlorophenyl)ethyl]-1H-imidazole]
PXR
  activity with PXR: some activity
PPAR
  activity with PPAR: most consistently active
CAR
  activity with CAR: some activity
[12]
  activity with SR: some activity
AhR
  activity with AhR: some activity
